Source: patent publication US11124499B2, “Pharmaceutical composition derived from Tecoma plant and a method for treating cancer” (National Guard Health Affairs, priority 2018, dated 2021)

Experiments:
Caco-2 = assay: MTT cytotoxicity, Caco-2; assay type: cell-based; conditions: Caco-2, human colorectal adenocarcinoma, 12 h exposure, mean±SD of three trials
Description: (§1) The cytotoxicity of Tecomaphorbide was tested against various cultured cell lines. Cells were exposed to various concentrations of Tecomaphorbide (ranging from 0.0 to 4.0 μM) for 12 h. Subsequently, the exposed cells were incubated with MTT reagent for 4 h and the developed color was analyzed spectrophotometrically. IC50 was determined from the sigmoidal curve of blotting percentage of cell viability versus the logarithm of concentration in μM using Graphpad Prism 6 program. The determined values summarized in Table 2 are the mean±SD value obtained from three independent trials.

HL-60 = assay: MTT cytotoxicity, HL-60; assay type: cell-based; conditions: HL-60, human acute promyelocytic leukemia, 12 h exposure, mean±SD of three trials
Description: as §1

PC-3 = assay: MTT cytotoxicity, PC-3; assay type: cell-based; conditions: PC-3, human prostate adenocarcinoma, 12 h exposure, mean±SD of three trials
Description: as §1

K562 = assay: MTT cytotoxicity, K562; assay type: cell-based; conditions: K562, human chronic myelogenous leukemia, 12 h exposure, mean±SD of three trials
Description: as §1

Jurkat = assay: MTT cytotoxicity, Jurkat; assay type: cell-based; conditions: human acute T cell leukemia, 12 h exposure, mean±SD of three trials
Description: as §1

normal primary T-cells = assay: Apoptosis in normal primary T-cells (FIG. 2); assay type: cell-based, human
Source text: (§2) FIG. 2 is a bar graph summarizing the effect of compound Tecomaphorbide on apoptosis in human acute leukemia T-cells (Jurkat cells) and normal primary T-cells.

MOLM-13 = assay: MTT cytotoxicity, MOLM-13; assay type: cell-based; conditions: MOLM-13, human acute monocytic leukemia, 12 h exposure, mean±SD of three trials
Description: as §1

[1] = test system: T-Cell Acute lymphocytic leukemia cell line (Jurkat); assay: Apoptosis in Jurkat cells (FIG. 2); assay type: cell-based, human
Source text: as §2

MCF-7 = assay: MTT cytotoxicity, MCF-7; assay type: cell-based; conditions: MCF7, MCF-7, human breast adenocarcinoma, 12 h exposure, mean±SD of three trials
Description: as §1

MV4-11 = assay: MTT cytotoxicity, MV4-11; assay type: cell-based; conditions: MV4-11, human B myelomonocytic leukemia, 12 h exposure, mean±SD of three trials
Description: as §1

U937 = assay: MTT cytotoxicity, U937; assay type: cell-based; conditions: U-937, U937, human histiocytic lymphoma, 12 h exposure, mean±SD of three trials
Description: as §1

C=Cc1c(C=O)c2cc3nc(c4c5[nH]c(cc6nc(cc1[nH]2)C(C)=C6CC)c(C)c5C(=O)C4C(=O)OCC)C(CCC(=O)OC)C3C (centres unmarked) [Tecomaphorbide]
IC50 (Caco-2): 2830 ± 620 nM | IC50 (HL-60): 460 ± 110 nM | IC50 (PC-3): 1940 ± 350 nM | IC50 (K562): 1530 ± 190 nM | IC50 (Jurkat): 1210 ± 240 nM | effect on apoptosis (normal primary T-cells): minimal impact | IC50 (MOLM-13): 580 ± 170 nM | effect on apoptosis [1]: able to induce apoptosis | IC50 (MCF-7): 2660 ± 480 nM | IC50 (MV4-11): 620 ± 140 nM | IC50 (U937): 1380 ± 320 nM
